From US12577556B2, “Perturbation beads for use in assays” (Zafrens Inc., priority 2022, dated 2026)

Tested on: Jurkat cells engineered to have enhanced green fluorescent protein (eGFP) reporter fused to nuclear factor of activated T cells (NFAT) transcription factor
Experiment: NFAT-eGFP reporter assay in Jurkat cells with compounds photoreleased from labeled perturbation beads
Type: cell-based
Details: compounds released from beads by 10 seconds of 365 nm light, 60 mW/cm^2
Experimental: Individual beads were added to wells of a multiwell assay device. Jurkat cells engineered to have enhanced green fluorescent protein (eGFP) reporter fused to nuclear factor of activated T cells (NFAT) transcription factor were added to each well (cells purchased from BPS Bioscience, Catalog #78384). The compounds were released from the beads by exposure to 10 seconds of 365 nm wavelength light having illumination power of 60 mW/cm^2 and allowed to interact with the cells in the respective wells. […] This exemplifies using optically detectible labels on the bead to code for perturbation compounds and/or building blocks and corresponding that visible code to a cell perturbation.

Row | SMILES | change in NFAT-eGFP expression levels
1 | Cc1sc2c(c1C)C(c1ccc(Cl)cc1)=NC([C@@H](C(=O)O)C(C)(C)C)c1nnc(C)n1-2 (stereo partly drawn) [JQ1, ((S)-tert-butyl 2-(4-(4-chlorophenyl)-2,3,9-trimethyl-6H-thieno[3,2-f] [1,2,4]triazolo[4,3-a] [1,4]diazepin-6-yl)acetic acid)] | minimal change
2 | COc1cc2c(cc1Nc1ncc(C(=O)O)c(Nc3c(F)cccc3C(F)(F)F)n1)CN(C)CC2 [HPK, 4-{[2-Fluoro-6-(trifluoromethyl)phenyl]amino}-2-[(6-methoxy-2-methyl-1,2,3,4-tetrahydro-7-isoquinolinyl)amino]-5-pyrimidine-5-carboxylic acid] | minimal change
3 | O=C1CCC(N2Cc3cc(C(=O)O)ccc3C2=O)C(=O)N1 (stereo not drawn) [LNI, 2-(2,6-dioxopiperidin-3-yl)-1-oxoisoindoline-5-carboxylic acid] | minimal change
